Our source for the EC50 and Emax values is patent US10202382B2 (Purdue Pharma L.P., priority 2014, dated 2019).

The structures appear in SMILES notation. Bounds are passed on as bounds.

By EC50 is commonly meant the midpoint of the concentration-response curve. A word on the Emax: it is the greatest response seen or fitted, relative to the assay's reference.

The assay concerns the target T1, μ-opioid receptor (Homo sapiens, UniProt P35372).
T1 construct: expressed in transfected cells; host or cells: HEK-293
Put plainly: μ-opioid receptor [35S]GTPγS functional assay. It counts as biochemical. Particulars: HEK-293 cells; for Emax: maximal effect relative to DAMGO. The protocol:
[^35S]GTPγS functional assays were conducted using freshly thawed μ-receptor membranes prepared in-house from a cell line expressing recombinant μ opioid receptor in a HEK-293, CHO or U-2 OS cell background, or purchased from a commercial source (Perkin Elmer, Shelton, Conn.; or DiscovRx, Fremont, Calif.). Assay reactions were prepared by sequentially adding the following reagents to binding buffer (100 mM NaCl, 10 mM MgCl2, 20 mM HEPES, pH 7.4) on ice (final concentrations indicated): membrane protein (0.026 mg/mL), saponin ([…]), GDP ([…]) and [^35S]GTPγS (0.20 nM; Perkin Elmer, Shelton, Conn.). The prepared membrane solution (190 μl/well) was transferred to 96-shallow well polypropylene plates containing 10 μl of 20× concentrated stock solutions of the agonist [D-Ala^2, N-methyl-Phe^4 Gly-ol^5]-enkephalin (DAMGO) prepared in dimethyl sulfoxide (DMSO). Plates were incubated for 30 min at about 25° C. with shaking. Reactions were terminated by rapid filtration onto 96-well Unifilter GF/B filter plates (Perkin Elmer, Shelton, Conn.) using a 96-well tissue harvester (Perkin Elmer, Shelton, Conn.) followed by three filtration washes with 200 μl of ice-cold wash buffer (10 mM NaH2PO4, 10 mM Na2HPO4, pH 7.4). Filter plates were subsequently dried at 50° C. for 2-3 hours. BetaScint scintillation cocktail (Perkin Elmer, Shelton, Conn.) was added (50 μl/well) and plates were counted using a Packard Top-Count for 1 min/well. Data were analyzed using the sigmoidal dose-response curve fitting functions in GraphPad PRISM v. 3.0, or an in-house function for non-linear, sigmoidal dose-response curve-fitting.
μ GTP EC50 is the concentration of a compound providing 50% of the maximal response for the compound at a μ-opioid receptor.
μ GTP Emax (%) is the maximal effect elicited by a compound relative to the effect elicited by DAMGO, a standard agonist. Generally, the μ GTP Emax (%) value measures the efficacy of a compound to treat or prevent pain or other Conditions.
In TABLE 1, activity response of certain Compounds of the Invention to the μ-opioid receptors was determined as described above for functional assays using HEK-293 cells.
A general note: Binding of GTPγS marks nucleotide exchange on a G protein.

The mark [1] stands for this setting: cell prints μM under an nM head.
Where [2] appears, read: membranes with recombinant μ opioid receptor.

T1 sequence (P35372 whole entry, species assumed): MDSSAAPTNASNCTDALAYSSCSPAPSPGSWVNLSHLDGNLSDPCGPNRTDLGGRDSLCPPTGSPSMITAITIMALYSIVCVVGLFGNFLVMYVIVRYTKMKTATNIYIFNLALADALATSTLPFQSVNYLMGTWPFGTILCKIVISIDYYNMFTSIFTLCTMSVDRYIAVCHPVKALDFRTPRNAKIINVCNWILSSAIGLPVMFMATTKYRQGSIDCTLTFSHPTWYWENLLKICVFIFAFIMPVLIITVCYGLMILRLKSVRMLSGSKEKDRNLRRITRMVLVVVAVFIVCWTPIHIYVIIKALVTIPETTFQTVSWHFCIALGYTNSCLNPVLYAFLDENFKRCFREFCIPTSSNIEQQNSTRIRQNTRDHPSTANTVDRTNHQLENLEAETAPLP

`COc1ccc(CN2C[C@H]3[C@H]4Cc5ccc(OC)cc5[C@@]3(CCN4C)CC2=O)cc1` [Compound 8, (4aS,5R,10bS)-9-methoxy-3-(4-methoxybenzyl)-13-methyl-4,4a,5,6-tetrahydro-1H-5,10b-(epiminoethano)benzo[f]isoquinolin-2(3H)-one]: the Emax was 70.3 ± 1.67%. Under setting [1], the EC50 was above 20 µM.

In the case of `COc1ccc(CN2CC[C@]34CCN(C)[C@H](Cc5ccc(OC)cc53)[C@@H]4C2)cc1` [Compound 9, (4aS,5R,10bR)-9-methoxy-3-(4-methoxybenzyl)-13-methyl-2,3,4,4a,5,6-hexahydro-1H-5,10b-(epiminoethano)benzo[f]isoquinoline], the Emax was 28.7 ± 1.45%. Besides, the EC50 under setting [1] was above 20 µM.

Molecule `COc1ccc2c(c1)[C@]13CCN(C)[C@H](C2)[C@@H]1CNC(=O)C3` [Compound 11, (4aS,5R,10bS)-9-methoxy-13-methyl-4,4a,5,6-tetrahydro-1H-5,10b-(epiminoethano)benzo[f]isoquinolin-2(3H)-one] returned an Emax of 57.8 ± 2.68%. Also, the EC50 under setting [1] was above 20 µM.

In the case of `CN1CC[C@]23CCN(Cc4ccc(O)cc4)C[C@H]2[C@H]1Cc1ccc(O)cc13` [Compound 23, (4aS,5R,10bR)-3-(4-hydroxybenzyl)-13-methyl-2,3,4,4a,5,6-hexahydro-1H-5,10b-(epiminoethano)benzo[f]isoquinolin-9-ol], the Emax turned out to be 51.7 ± 2.85%. For the same molecule, under setting [2], the EC50 turned out to be 1.59 ± 0.0616 µM.

In the case of `CN1CC[C@]23CC(=O)NC[C@H]2[C@H]1Cc1ccc(O)cc13` [Compound 24, (4aS,5R,10bS)-9-hydroxy-13-methyl-4,4a,5,6-tetrahydro-1H-5,10b-(epiminoethano)benzo[f]isoquinolin-2(3H)-one], the Emax is 52 ± 2.08%. The EC50 under setting [2] stood at 1.38 ± 0.104 µM.

As for `CN1CC[C@]23CCNC[C@H]2[C@H]1Cc1ccc(O)cc13` [Compound 25, (4aS,5R,10bR)-13-methyl-2,3,4,4a,5,6-hexahydro-1H-5,10b-(epiminoethano)benzo[f]isoquinolin-9-ol], the Emax turned out to be 43.7 ± 1.45%. Under setting [2], the EC50 amounted to 8.36 ± 0.929 µM.

With `CN1CC[C@]23CC(=O)N(CC4CC4)C[C@H]2[C@H]1Cc1ccc(O)cc13` [Compound 26], the Emax turned out to be 67.7 ± 1.2%. Also, the EC50 under setting [2] is 0.881 ± 0.183 µM.

The molecule `CN1CC[C@]23CCN(CC4CC4)C[C@H]2[C@H]1Cc1ccc(O)cc13` [Compound 27, (4aS,5R,10bR)-3-(cyclopropylmethyl)-13-methyl-2,3,4,4a,5,6-hexahydro-1H-5,10b-(epiminoethano)benzo[f]isoquinolin-9-ol] yielded an Emax of 44.4 ± 2.5%. In addition, under setting [2], the EC50 was determined as 14 ± 1.94 µM.

The molecule `CN1CC[C@]23CC(=O)N(Cc4ccccc4)C[C@H]2[C@H]1Cc1ccc(O)cc13` [Compound 28] yielded an Emax of 58.7 ± 4.84%. Also, the EC50 under setting [2] came out at 2.73 ± 0.392 µM.

`CC(=O)N1CC[C@]23CCN(C)[C@H](Cc4ccc(O)cc42)[C@@H]3C1` [Compound 29, 1-((4aS,5R,10bS)-9-hydroxy-13-methyl-1,2,4,4a,5,6-hexahydro-3H-5,10b-(epiminoethano)benzo[f]isoquinolin-3-yl)ethan-1-one] came in with an Emax of 64.7 ± 4.63%. For the same molecule, the EC50 under setting [2] stood at 0.298 ± 0.0278 µM.

Take `CC(C)C(=O)N1CC[C@]23CCN(C)[C@H](Cc4ccc(O)cc42)[C@@H]3C1` [Compound 30, 1-((4aS,5R,10bS)-9-hydroxy-13-methyl-1,2,4,4a,5,6-hexahydro-3H-5,10b-(epiminoethano)benzo[f]isoquinolin-3-yl)-2-methylpropan-1-one]: the Emax came out at 37.2 ± 1.18%. In addition, the EC50 under setting [2] was found to be 0.733 ± 0.0407 µM.

`CN1CC[C@]23CCN(C(=O)C4CC4)C[C@H]2[C@H]1Cc1ccc(O)cc13` [Compound 31, Cyclopropyl ((4aS,5R,10bS)-9-hydroxy-13-methyl-1,2,4,4a,5,6-hexahydro-3H-5,10b-(epiminoethano)benzo[f]isoquinolin-3-yl)methanone] had an Emax of 49 ± 1.53%. The EC50 under setting [2] turned out to be 0.725 ± 0.0265 µM.

With `CN1CC[C@]23CCN(C)[C@H](Cc4ccc(O)cc42)[C@@H]3C1` [Compound 32, (4aS,5R,10bR)-3,13-dimethyl-2,3,4,4a,5,6-hexahydro-1H-5,10b-(epiminoethano)benzo[f]isoquinolin-9-ol], the Emax turned out to be 71.7 ± 3.18%. Besides, under setting [2], the EC50 was 1.07 ± 0.14 µM.

Regarding `CN1CC[C@]23CCN(C(=O)Nc4ccccc4)C[C@H]2[C@H]1Cc1ccc(O)cc13` [Compound 33, (4aS,5R,10bS)-9-hydroxy-13-methyl-N-phenyl-1,2,4,4a,5,6-hexahydro-3H-5,10b-(epiminoethano)benzo[f]isoquinoline-3-carboxamide], the Emax was 54.7 ± 8.35%. Moreover, the EC50 under setting [2] came out at 0.152 ± 0.00519 µM.
